Results from ChEMBL document CHEMBL1201862, “PubChem BioAssay data set” (2004).
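Tested at 5 concentrations; 48 h exposure; 96-well plates; endpoints linearly interpolated, else capped at highest concentration. The concentration for 50% growth inhibition is given as GI50.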 The source made the active and inactive calls. Rule as the data show it: active = GI50 up to about 1.1 µM and inactive = higher.

Assays:
Assay in all cases: DTP human tumour cell line panel, 48 h
[1] = test system: A549
[2] = test system: ACHN
[3] = test system: CAKI-1
[4] = test system: HL-60
[5] = test system: HT-29
[6] = test system: LOX IMVI
[7] = test system: M14
[8] = test system: MCF7
[9] = test system: MDA-MB-231
[10] = test system: MDA-MB-435
[11] = test system: MDA-N
[12] = test system: NCI-H23
[13] = test system: NCI-H460
[14] = test system: NCI/ADR-RES
[15] = test system: OVCAR-3
[16] = test system: OVCAR-4
[17] = test system: SF-268
[18] = test system: SF-295
[19] = test system: SN12C
[20] = test system: UO-31

Measured: GI50

O=C(CCCN1CC=C(n2c(=O)[nH]c3ccccc32)CC1)c1cccs1
inactive: [1] > 100 µM | [2] > 100 µM | [3] > 100 µM | [4] > 100 µM | [5] 52.4 µM | [6] > 100 µM | [7] > 100 µM | [8] 11.8 µM | [9] > 100 µM | [10] > 100 µM | [11] > 100 µM | [12] > 100 µM | [13] 63.5 µM | [14] > 100 µM | [15] > 100 µM | [16] > 100 µM | [17] > 100 µM | [18] > 100 µM | [19] > 100 µM | [20] > 100 µM

Nc1ccc(-c2nc3ccccc3s2)cc1C#Cc1ccccc1
inactive: [1] 22.6 µM | [2] 18.8 µM | [3] 15.8 µM | [4] 26.5 µM | [5] 19.6 µM | [6] 19 µM | [7] 16.3 µM | [8] 1.59 µM | [9] 19.7 µM | [10] 19.1 µM | [11] 17.9 µM | [12] 20.9 µM | [13] 17 µM | [14] 21.4 µM | [15] 15.5 µM | [16] 20.6 µM | [17] 21.1 µM | [18] 21.2 µM | [19] 18.8 µM | [20] 18.3 µM
